US11690804B2, “Targeted delivery of therapeutic agents to human adipocytes” (AptamiR Therapeutics, Inc., priority 2018, dated 2023)
Square brackets hold non-standard residues; d marks the D form. Peptide text beside a SMILES is read from it. dTrp(2-Me) = Cc1[nH]c2ccccc2c1C[C@@H](N)C(=O)O

Columns and labels:
[1] = tested on: human subcutaneous adipocytes; test: Transport of green fluorescent labeled fatty acids into primary cultures of human subcutaneous adipocytes (fluorescence microscopy); type: cell-based; conditions: green fluorescent probe, primary culture
Method: In vitro validation of AdipomiRs targeted delivery of functional miRNAs: The ability of the AdipomiRs to target and deliver ss-miRNA analogs to adipocytes was evaluated in a model of primary cultures of human subcutaneous adipocytes. The first experimental step was to confirm that fatty acids are efficiently transported into human mature adipocytes, using the inventor's in vitro protocol of primary cultures of human subcutaneous adipocytes. To test this, fatty acids such as palmitic and […] acids were labeled with a green fluorescent probe and incubated with cultured adipocytes.

[2] = tested on: human subcutaneous adipocytes; test: Transport of green fluorescent Hexarelin into primary cultures of human subcutaneous adipocytes (fluorescence microscopy); type: cell-based; conditions: green fluorescent probe, primary culture
Text: In vitro validation of HexamiRs targeted delivery of functional miRNAs: The ability of the HexamiRs to target and deliver ss-miRNA analogs to adipocytes will evaluated in a model of primary cultures of human subcutaneous adipocytes. The first experimental step was to confirm that Hexarelin is efficiently transported into human mature adipocytes, using an in vitro protocol of primary cultures of human subcutaneous adipocytes. To test this, hexarelin labeled with a green fluorescent probe was incubated with cultured adipocytes.

[3] = tested on: MKR insulin-resistant mice; conditions: cited from earlier work

Structure (SMILES)	transport of labeled fatty acids by human adipocytes [1]	transport of labeled hexarelin into the cytoplasm of human adipocytes [2]	glucose and insulin intolerance [3]	plasma and liver triglycerides [3]
CCCCCCCCCCCCCCCC(=O)O [palmitic acid, Palmitic Acid]	very efficiently transported	–	–	–
Cc1[nH]c2ccccc2c1C[C@@H](NC(=O)[C@@H](N)Cc1cnc[nH]1)C(=O)N[C@@H](C)C(=O)N[C@@H](Cc1c[nH]c2ccccc12)C(=O)N[C@H](Cc1ccccc1)C(=O)N[C@@H](CCCCN)C(N)=O [Hexarelin, His-D-2-Me-Trp-Ala-Trp-D-Phe-Lys-NH2] (H-H[dTrp(2-Me)]AW[dF]K-NH2)	–	very efficiently transported	significantly improved	decreased
